In PubChem BioAssay AID1902 (Broad Institute, 2009):
Active and inactive are the calls of the source.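 Rule for the calls: active = EC50 no more than a set limit of log units above the highest dose; inactive = the rest.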

Target: S. pyogenes SKKanGAS, kanamycin survival, BacTiterGlo, 6 h
Experiment: SKKanGAS survival reduction under kanamycin, dose response, streptokinase promoter inhibitor project, SKKanGAS strain, luminescence, dose confirmation (AID 1902);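 note: lower survival reflects blocked streptokinase promoter driving kanamycin resistance gene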

Point of comparison: `Cc1cccc(CSc2nc(N)c(C#N)c(-c3cccs3)c2C#N)c1`, EC50 4.77 µM. Against it:
- O=C(/C=C/c1ccccc1)NC(=S)NNC(=O)Cc1cccs1 — 3.2-fold lower, 1.47 µM
- Oc1ccc(/C=N/Nc2ccc3ccccc3c2)c(O)c1 — 1.6-fold higher, 7.53 µM
- O=C(NC(=S)NNC(=O)[C@H]1C[C@@H]1c1ccccc1)c1ccc(F)cc1 — 6.7-fold lower, 0.715 µM
- CC1(C)S[C@@H]2[C@H](NC(=O)COc3ccccc3)C(=O)N2C1C(=O)OCc1ccccc1 (stereo partly drawn) — 4.6-fold lower, 1.04 µM
- CCCC(=O)NC(c1ccc(C)cc1)c1ccc2cccnc2c1O (stereo not drawn) — within 1.5-fold, 4.16 µM
- c1csc(-c2csc3nc(CN4CCOCC4)nc(NCc4ccc5c(c4)OCO5)c23)c1 — within 1.5-fold, 4.94 µM
- O=C1NC(=O)/C(=C/c2ccccc2Oc2ccc(Cl)cc2)S1 — within 1.5-fold, 6.33 µM
- O=C1/C(=C\c2cc([N+](=O)[O-])ccc2O)SC(=S)N1Cc1ccc(Cl)cc1 — 2.2-fold lower, 2.18 µM
- CCCCCCn1c(=O)c(C(=O)Nc2c(C)n(C)n(-c3ccccc3)c2=O)c(O)c2ccccc21 — 1.8-fold lower, 2.59 µM
- CCn1c(=S)sc2c(=O)[nH]c(SCC(=O)Nc3cc(OC)ccc3OC)nc21 — within 1.5-fold, 6.58 µM
- Cc1[nH]c2ccccc2c1C(=O)COC(=O)c1ccc2c(=O)n3c(nc2c1)CCC3 — 3.1-fold lower, 1.52 µM
- O=C(N/N=C/c1c(O)ccc2ccccc12)c1ccc(Br)o1 — 2.1-fold lower, 2.3 µM
- c1ccc(CN2CCN(c3nc4ccccc4c4ccccc34)CC2)cc1 — within 1.5-fold, 5.26 µM
- COc1ccc(C2=NOC(CNC(N)=S)C2)cc1 (stereo not drawn) — within 1.5-fold, 3.41 µM
- Cc1ccc(Oc2ccc3c(c2)C(=O)N(c2cccc4cccnc24)C3=O)cc1 — 1.6-fold lower, 2.91 µM
- CCCn1c(NC(=O)c2cccc(C)c2C)nc2ccccc21 — 1.5-fold higher, 7.37 µM
- O=[N+]([O-])c1ccc(Cl)cc1Sc1nc2ccccc2o1 — 2.9-fold lower, 1.67 µM
- CCOc1ccc2nc(NC(=O)CN3CCC(n4nnc5cc(C(F)(F)F)ccc54)CC3)sc2c1 — 2-fold lower, 2.43 µM
- CC(=O)Nc1nc2ccccc2n1CCOc1ccccc1 — 2.4-fold higher, 11.3 µM
- CCOC(=O)c1ccc(-c2ccc3c(=O)c4ccccc4n(C)c3c2)cc1F — within 1.5-fold, 4.15 µM
- O=C(/C(N=Nc1cccc([N+](=O)[O-])c1)=C(/O)c1ccc(Br)cc1)C(F)(F)F — within 1.5-fold, 4.28 µM
- Fc1ccc(-c2csc3ncnc(N4CCc5ccccc5C4)c23)cc1 — 1.7-fold lower, 2.73 µM
- CC1(C)S[C@@H]2[C@H](NC(=O)C(NC(=O)N3CCNC3=O)c3ccccc3)C(=O)N2[C@H]1C(=O)O (stereo partly drawn) — lower, < 0.06 µM
- N#Cc1c(NC(=O)CSc2n[nH]c(Cc3ccccc3)n2)oc(-c2ccccc2)c1-c1ccccc1 — within 1.5-fold, 4.93 µM
- CC(C)(C)C(=O)N1N=C(c2ccc(NS(C)(=O)=O)cc2)CC1c1cccs1 (stereo not drawn) — 1.6-fold higher, 7.49 µM
- Cc1cc(=O)[nH]c(SCC(=O)Nc2ccc(Br)cc2)c1C#N — 2-fold higher, 9.7 µM
- CCOC(=O)c1c(N)sc(C(O)(C(F)(F)F)C(F)(F)F)c1-c1ccc(Cl)cc1 — 1.5-fold lower, 3.17 µM
- CCCCCC(=O)NC(=S)NC1C2CC3CC(C2)CC1C3 (stereo not drawn) — within 1.5-fold, 3.83 µM
- C=CCn1c(COc2ccccc2)nnc1SCC(=O)N/N=C/c1cc(Cl)ccc1O — within 1.5-fold, 3.32 µM
- O=C(NNC1=Nc2ccccc2SC1)c1ccc(F)cc1 — within 1.5-fold, 6.87 µM
- c1ccc(-c2nc(NCc3ccco3)c3ccccc3n2)nc1 — within 1.5-fold, 4.7 µM
- COc1cc(C(=O)Nc2ccc(-c3nc4cc(C)ccc4o3)c(O)c2)cc(OC)c1OC — within 1.5-fold, 3.9 µM
- C=CCn1c(NC(=O)c2ccc(C)cc2)nc2ccccc21 — 2-fold higher, 9.75 µM
- Cc1ccccc1/C=N/Nc1nc2ccccc2[nH]1 — within 1.5-fold, 5.3 µM
- Nc1c(Cl)cc(C2=NCCn3c2c2ccc([N+](=O)[O-])cc2[n+]3[O-])cc1Cl — 2-fold lower, 2.44 µM
- Cc1ccc(S(=O)(=O)Nc2cccc3cccnc23)c([N+](=O)[O-])c1 — 7.5-fold lower, 0.632 µM
- CCOC(=O)c1ccc(NC(=O)c2sc3nc4n(c(=O)c3c2C)CCC4)cc1 — 2.4-fold lower, 1.99 µM
- c1ccc(OCc2nc3c4c(ncn3n2)-c2ccccc2CC42CCCC2)cc1 — 2.5-fold higher, 11.7 µM
- O=C(Nc1ccccc1)Nc1cc(OCC(F)(F)F)cc(OCC(F)(F)F)c1 — within 1.5-fold, 4.78 µM
- CN1C(=O)/C(=C/c2ccc(C(F)(F)F)cc2)Sc2ccc(C(=O)N3CCN(c4ccccn4)CC3)cc21 — 3-fold lower, 1.57 µM
- CC(C)(C)c1cc(NCc2ccccn2)n2ncc(-c3ccc(Cl)cc3)c2n1 — 3.6-fold lower, 1.34 µM
- Cc1ccccc1CN(C)CC(=O)Nc1ccccc1-c1ccccc1 — within 1.5-fold, 3.3 µM
- CCN=C1S/C(=C\c2ccc(-c3cccc(C(=O)O)c3)o2)C(=O)N1CC — within 1.5-fold, 3.4 µM
- Clc1ccc(-c2ccc(/C=N/Nc3cc(N4CCOCC4)nc(N4CCOCC4)n3)o2)cc1 — 3.3-fold higher, 15.7 µM
- Cc1nn(-c2nc3ccccc3[nH]2)c(N)c1-c1ccc(Cl)cc1 — 3.1-fold lower, 1.53 µM

For `CC(OC(=O)CC1CCCC1)C(=O)Nc1ccc(S(N)(=O)=O)cc1` (stereo not drawn), the EC50 was > 15 µM (inactive).
With `CC(C)(C)c1ccc(OCC(=O)N2CCN(c3ncccn3)CC2)cc1` the EC50 was > 15 µM (inactive).
`Cc1cc(Oc2ccc(Cl)cc2)nc(-c2ccccc2O)n1` was tested, and the EC50 was > 15 µM (inactive).
In the case of `O=C(CSc1nnc(CNC(=O)c2ccccc2)o1)NCc1ccccc1`, the EC50 is reported as > 15 µM (inactive).
For `Cc1cc(C)n(-c2nc(C)nc(NCc3ccccc3)n2)n1`, the EC50 was > 15 µM (inactive).
With `Cn1c(SCC(=O)NC2(C#N)CCCCC2)nnc1-c1cccnc1` the EC50 was > 15 µM (inactive).
For `Cc1nn(C)c(Cl)c1CN1CCCC(C(=O)Nc2ccc(-c3cscn3)cc2)C1` (stereo not drawn), the EC50 was > 15 µM (inactive).
